Data from paper PMC3091653, “A new family of phosphoinositide phosphatases in microorganisms: identification and biochemical analysis” (BMC Genomics, 2010).

Target: T1, LM1 (Leishmania major, UniProt Q4QBX1)
T1 construct: gene LMJF_22_0250; pET14, His6-tagged (kept), frame shift of original clone removed by mutagenesis; E. coli BL21 (DE3)
Experiment: malachite green phosphate release
Format: biochemical
Settings: pH 6, 37°C, 100-125 μM substrate

T1 sequence (Q4QBX1 entry or part of it): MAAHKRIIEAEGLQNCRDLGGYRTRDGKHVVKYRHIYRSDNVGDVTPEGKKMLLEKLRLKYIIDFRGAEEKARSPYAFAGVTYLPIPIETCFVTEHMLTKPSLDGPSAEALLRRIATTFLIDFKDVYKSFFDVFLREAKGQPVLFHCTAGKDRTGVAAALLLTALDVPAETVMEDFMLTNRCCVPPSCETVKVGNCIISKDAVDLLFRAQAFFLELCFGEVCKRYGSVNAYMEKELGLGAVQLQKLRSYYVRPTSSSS

CCCCCCCC(=O)OC[C@H](COP(=O)(O)O[C@@H]1[C@H](O)[C@H](OP(=O)(O)O)[C@@H](O)[C@H](O)[C@H]1O)OC(=O)CCCCCCC [diC8-PI(3)P]
malachite green phosphate release: Both Lmo1935 and LM1 show also activity towards mono-phosphorylated PIs
